The compounds below were run against ROCK2 (Homo sapiens (Human), UniProt O75116) (assay: ROCK2 kinase IC50 assay (CISBIO HTRF KinEASE-STK S2 kit)). Details: ROCK2 from Carna Biosciences, 2 h incubation at room temperature.
Format: biochemical
Method: The kinase IC50 was determined by a commercialized CISBIO kinase detection kit, HTRF KinEASE-STK S2 kit (62ST2PEC). ROCK2 (01-119) employed in the reaction was purchased from Carna Biosciences.
Before the assay, the following working solutions as needed were formulated with corresponding reagents according to the instruction of the kinase detection kit: 1×kinase buffer, 5×STK-52 substrate working solution (1.5 μM) and 5×ATP working solution (1.5 μM), 5×ROCK2 kinase working solution, 4×Streptavidin-XL665 working solution, and 4×STK-Ab-Cryptate 2 detection solution. Then the assay was performed according to the following procedure.
A solution of a compound at a concentration of 10000 nM was prepared with the 1×kinase buffer containing 2.5% DMSO. Gradient dilution of the solution of the compound was performed with the kinase buffer containing DMSO, so as to obtain solutions of a test compound at 9 different concentrations. In addition to wells of test compounds, a positive well (containing all the reagents except the compound) and a negative well (containing all the reagents except the test compound and kinase) were set. Except for the control wells (positive and negative wells), a solution of a test compound (4 μL) was added to each of the reaction wells, and a solution of 2.5% DMSO was added to the control wells. Then the substrate (2 μM, i.e., 2 μL 5×STK-S2 substrate working solution) was added to each of the reaction wells. The 5×ROCK2 kinase working solution (2 μL, containing 1.4 ng ROCK2 kinase) was added to each of the reaction wells except for the negative well, the volume of which was made up with the 1×kinase buffer (2 μL). The 5×ATP working solution (2 μL) was added to each of the reaction wells, and the mixtures were incubated at room temperature for 2 hours. After the kinase reaction was complete, the 4×Streptavidin-XL665 working solution was added to each of the reaction wells, the solutions were mixed, followed by immediate addition of the 4×STK-Ab-Cryptate 2 detection solution (5 μL), and the mixtures were incubated at room temperature for 1 hour. The fluorescence signal was read on ENVISION (Perkinelmer) (excitation wavelength: 320 nm, and emission wavelength: 665 nm and 615 nm). The inhibitory rate in each well was calculated based on the fluorescence intensity value: ER (Emission Ratio)=(fluorescence intensity at 665 nm/fluorescence intensity at 615 nm); inhibitory rate=(ERpositive−ERtest compound) (ERpositive−ERnegative)*100%. Curves were plotted and fitted to obtain the median inhibitory concentration (IC50) of each teat compound with the PRISM 5.0 software.

ROCK2, sequence (O75116 1-553): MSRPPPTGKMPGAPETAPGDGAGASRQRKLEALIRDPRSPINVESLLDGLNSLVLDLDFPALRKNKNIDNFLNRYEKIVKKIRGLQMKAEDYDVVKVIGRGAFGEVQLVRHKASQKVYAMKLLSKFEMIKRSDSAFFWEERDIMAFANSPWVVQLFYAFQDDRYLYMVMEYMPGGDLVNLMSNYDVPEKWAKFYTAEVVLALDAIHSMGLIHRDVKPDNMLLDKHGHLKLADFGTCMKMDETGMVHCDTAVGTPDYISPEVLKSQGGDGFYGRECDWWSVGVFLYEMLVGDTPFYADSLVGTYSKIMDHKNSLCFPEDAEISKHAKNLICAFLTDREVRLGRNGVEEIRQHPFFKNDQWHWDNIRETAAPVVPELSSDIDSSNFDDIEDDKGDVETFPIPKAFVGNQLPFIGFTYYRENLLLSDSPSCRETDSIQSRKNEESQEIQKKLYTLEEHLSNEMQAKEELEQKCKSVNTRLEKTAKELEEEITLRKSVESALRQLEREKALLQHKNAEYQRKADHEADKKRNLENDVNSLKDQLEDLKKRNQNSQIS

| Compound | IC50 [nM] |
| --- | --- |
| CC(C)NC(=O)c1ccc2ccc(-c3nccc(Nc4ccc5[nH]ncc5c4)n3)cc2n1 [TDI01327, 7-(4-((1H-indazol-5-yl)amino)pyrimidin-2-yl)-N-isopropylquinoline-2-carboxamide] | 472 |
| O=C(c1cc2ccc(-c3nccc(Nc4ccc(-c5cn[nH]c5)cc4)n3)cc2[nH]1)N1CCOCC1 [TDI01331, (6-(4-((4-(1H-pyrazol-4-yl)phenyl)amino)pyrimidin-2-yl)-1H-indol-2-yl)(morpholino)methanone] | 260 |
| O=C(NC1CCOCC1)c1cc2ccc(-c3nccc(Nc4ccc(-c5cn[nH]c5)cc4)n3)cc2[nH]1 [TDI01338, 6-(4-((4-(1H-pyrazol-4-yl)phenyl)amino)pyrimidin-2-yl)-N-(tetrahydro-2H-pyran-4-yl)-1H-indole-2-carboxamide] | 115 |
| CN1CCN(C(=O)c2cc3ccc(-c4nccc(Nc5ccc(-c6cn[nH]c6)cc5)n4)cc3[nH]2)CC1 [TDI01343, (6-(4-((4-(1H-pyrazol-4-yl)phenyl)amino)pyrimidin-2-yl)-1H-indol-2-yl)(4-methylpiperazin-1-yl)methanone] | 436 |
| O=C(Nc1ccncc1Cl)c1cc2ccc(-c3nccc(Nc4ccc(-c5cn[nH]c5)cc4)n3)cc2[nH]1 [TDI01354, 6-(4-((4-(1H-pyrazol-4-yl)phenyl)amino)pyrimidin-2-yl)-N-(3-chloropyridin-4-yl)-1H-indole-2-carboxamide] | 254 |
| O=C(Nc1ccncc1)c1cc2ccc(-c3nccc(Nc4ccc(-c5cn[nH]c5)cc4)n3)cc2[nH]1 [TDI01363, 6-(4-((4-(1H-pyrazol-4-yl)phenyl)amino)pyrimidin-2-yl)-N-(pyridin-4-yl)-1H-indole-2-carboxamide] | 104 |
| CN(C)C(=O)N1Cc2ccc(-c3nccc(Nc4ccc(-c5cn[nH]c5)cc4)n3)cc2C1 [TDI01366, 5-(4-((4-(1H-pyrazol-4-yl)phenyl)amino)pyrimidin-2-yl)-N,N-dimethylisoindoline-2-carboxamide] | 260 |
| CC(C)NC(=O)c1cc2ccc(-c3nc(Nc4ccc(-c5cn[nH]c5)cc4)c4sccc4n3)cc2[nH]1 [TDI01370, 6-(4-((4-(1H-pyrazol-4-yl)phenyl)amino)thieno[3,2-d]pyrimidin-2-yl)-N-isopropyl-1H-indole-2-carboxamide] | 109 |
| CNC(=O)c1cc2ccc(-c3nc(Nc4ccc(-c5cn[nH]c5)cc4)c4sccc4n3)cc2[nH]1 [TDI01379, 6-(4-((4-(1H-pyrazol-4-yl)phenyl)amino)thieno[3,2-d]pyrimidin-2-yl)-N-methyl-1H-indole-2-carboxamide] | 411 |
| O=C(Nc1ccncc1)c1cc2ccc(-c3nccc(Nc4ccc(-c5cn[nH]c5)cc4)n3)cc2s1 [TDI01393] | 258 |
| O=C(Nc1cccnc1)c1cc2ccc(-c3nccc(Nc4ccc(-c5cn[nH]c5)cc4)n3)cc2[nH]1 [TDI01397, 6-(4-((4-(1H-pyrazol-4-yl)phenyl)amino)pyrimidin-2-yl)-N-(pyridin-3-yl)-1H-indole-2-carboxamide] | 120 |
| CCNC(=O)c1cc2cc(-c3nccc(Nc4ccc(-c5cn[nH]c5)cc4)n3)ccc2[nH]1 [TDI01408] | 400 |
| CCNC(=O)N1Cc2ccc(-c3nccc(Nc4ccc(-c5cn[nH]c5)cc4)n3)cc2C1 [TDI01411, 5-(4-((4-(1H-pyrazol-4-yl)phenyl)amino)pyrimidin-2-yl)-N-ethylisoindoline-2-carboxamide] | 258 |
| CN(C(=O)c1cc2ccc(-c3nccc(Nc4ccc(-c5cn[nH]c5)cc4)n3)cc2[nH]1)c1ccncc1 [TDI01421, 6-(4-((4-(1H-pyrazol-4-yl)phenyl)amino)pyrimidin-2-yl)-N-methyl-N-(pyridin-4-yl)-1H-indole-2-carboxamide] | 289 |
| O=C(NC1CCOC1)c1cc2ccc(-c3nc(Nc4ccc(-c5cn[nH]c5)cc4)c4sccc4n3)cc2[nH]1 (stereo not drawn) [TDI01423, 6-(4-((4-(1H-pyrazol-4-yl)phenyl)amino)thieno[3,2-d]pyrimidin-2-yl)-N-(tetrahydrofuran-3-yl)-1H-indole-2-carboxamide] | 264 |
| O=C(NC1CCC1)c1cc2ccc(-c3nc(Nc4ccc(-c5cn[nH]c5)cc4)c4sccc4n3)cc2[nH]1 [TDI01424, 6-(4-((4-(1H-pyrazol-4-yl)phenyl)amino)thieno[3,2-d]pyrimidin-2-yl)-N-cyclobutyl-1H-indole-2-carboxamide] | 138 |
| O=C(c1cc2ccc(-c3nccc(Nc4ccc(-c5cn[nH]c5)cc4)n3)cc2[nH]1)N1CCC2(CCNCC2)CC1 [TDI01425, (6-(4-((4-(1H-pyrazol-4-yl)phenyl)amino)pyrimidin-2-yl)-1H-indol-2-yl)(3,9-diazaspiro[5.5]undecan-3-yl)methanone] | 119 |
| CN(CC(F)(F)F)C(=O)c1cc2ccc(-c3ncc(F)c(Nc4ccc(-c5cn[nH]c5)cc4)n3)cc2[nH]1 [TDI01426] | 365 |
| O=C(c1cc2ccc(-c3nccc(Nc4ccc(-c5cn[nH]c5)cc4)n3)cc2[nH]1)N1CC(C(F)(F)F)C1 [TDI01433] | 13 |

Further lines, results first:

| IC50 [nM] | Compound |
| --- | --- |
| 474 | O=C(c1cc2ccc(-c3nccc(Nc4ccc(-c5cn[nH]c5)cc4)n3)cc2[nH]1)N1CCC1 [TDI01330, (6-(4-((4-(1H-pyrazol-4-yl)phenyl)amino)pyrimidin-2-yl)-1H-indol-2-yl)(azetidin-1-yl)methanone] |
| 257 | CCN(CC)C(=O)c1cc2ccc(-c3nccc(Nc4ccc(-c5cn[nH]c5)cc4)n3)cc2[nH]1 [TDI01332, 6-(4-((4-(1H-pyrazol-4-yl)phenyl)amino)pyrimidin-2-yl)-N,N-diethyl-1H-indole-2-carboxamide] |
| 121 | O=C(NC1CCOC1)c1cc2ccc(-c3nccc(Nc4ccc(-c5cn[nH]c5)cc4)n3)cc2[nH]1 (stereo not drawn) [TDI01337, 6-(4-((4-(1H-pyrazol-4-yl)phenyl)amino)pyrimidin-2-yl)-N-(tetrahydrofuran-3-yl)-1H-indole-2-carboxamide] |
| 147 | CN1CCC(NC(=O)c2cc3ccc(-c4nccc(Nc5ccc(-c6cn[nH]c6)cc5)n4)cc3[nH]2)C1 (stereo not drawn) [TDI01339, 6-(4-((4-(1H-pyrazol-4-yl)phenyl)amino)pyrimidin-2-yl)-N-(1-methylpyrrolidin-3-yl)-1H-indole-2-carboxamide] |
| 97 | CN(C(=O)c1cc2ccc(-c3nccc(Nc4ccc(-c5cn[nH]c5)cc4)n3)cc2[nH]1)C1COC1 [TDI01344, 6-(4-((4-(1H-pyrazol-4-yl)phenyl)amino)pyrimidin-2-yl)-N-methyl-N-(oxetan-3-yl)-1H-indole-2-carboxamide] |
| 107 | CN(C(=O)c1cc2ccc(-c3nccc(Nc4ccc(-c5cn[nH]c5)cc4)n3)cc2[nH]1)C(CO)CO [TDI01344-2A, 6-(4-((4-(1H-pyrazol-4-yl)phenyl)amino)pyrimidin-2-yl)-N-(1,3-dihydroxypropan-2-yl)-N-methyl-1H-indole-2-carboxamide] |
| 333 | CN(C(=O)c1cc2ccc(-c3nccc(Nc4ccc(-c5cn[nH]c5)cc4)n3)cc2[nH]1)C1CCNC1 (stereo not drawn) [TDI01345, 6-(4-((4-(1H-pyrazol-4-yl)phenyl)amino)pyrimidin-2-yl)-N-methyl-N-(pyrrolidin-3-yl)-1H-indole-2-carboxamide] |
| 54 | CN(CC(F)(F)F)C(=O)c1cc2ccc(-c3nccc(Nc4ccc(-c5cn[nH]c5)cc4)n3)cc2[nH]1 [TDI01355, 6-(4-((4-(1H-pyrazol-4-yl)phenyl)amino)pyrimidin-2-yl)-N-methyl-N-(2,2,2-trifluoroethyl)-1H-indole-2-carboxamide] |
| 341 | CN(C(=O)c1cc2ccc(-c3nccc(Nc4ccc(-c5cn[nH]c5)cc4)n3)cc2[nH]1)C1CCOCC1 [TDI01381] |
| 16 | N#CC1CN(C(=O)c2cc3ccc(-c4nccc(Nc5ccc(-c6cn[nH]c6)cc5)n4)cc3[nH]2)C1 [TDI01398, 1-(6-(4-((4-(1H-pyrazol-4-yl)phenyl)amino)pyrimidin-2-yl)-1H-indole-2-carbonyl)azetidine-3-carbonitrile] |
| 262 | CCN(CCO)C(=O)c1cc2ccc(-c3nccc(Nc4ccc(-c5cn[nH]c5)cc4)n3)cc2[nH]1 [TDI01415, 6-(4-((4-(1H-pyrazol-4-yl)phenyl)amino)pyrimidin-2-yl)-N-ethyl-N-(2-hydroxyethyl)-1H-indole-2-carboxamide] |
| 272 | CN(C(=O)c1cc2ccc(-c3nccc(Nc4ccc(-c5cn[nH]c5)cc4)n3)cc2[nH]1)C1CC(O)C1 (stereo not drawn) [TDI01418] |
| 477 | CN(C(=O)c1cc2ccc(-c3nccc(Nc4ccc(-c5cn[nH]c5)cc4)n3)cc2[nH]1)C1CCC1 [TDI01420] |
| 116 | CN(CC#N)C(=O)c1cc2ccc(-c3nccc(Nc4ccc(-c5cn[nH]c5)cc4)n3)cc2[nH]1 [TDI01430] |
